Laboratory results as given in US20150086557A1, “NOVEL INTEGRIN alpha9 beta1 LIGAND AND USES THEREOF” (OSAKA UNIVERSITY, priority 2012, published 2015).

What was measured:
hematopoietic stem cells [1] = assay: Proliferation of hematopoietic stem cells on coated plates; format: cell-based, mouse
Method: (§1) Bone marrow cells were flushed out from the femurs and tibias of three mice of 6 to 7 weeks of age (C57BL/6J) and dissociated with a 22G needle. The cells were reacted with a biotin-labeled anti-lineage antibody for 30 minutes and subsequently with an anti-blotin antibody-conjugated magnetic beads, and lineage-positive cells were removed by automated magnetic cell sorter autoMACS (Miltenyi Biotec). After staining with PE-CD3, PE-Mac1, PE-Gr1, PE-Ter119, PE-B220, FTTC-Sca1 and APC-c-Kit, a lineage(−) Sca1(+) c-Kit (high) cell fraction was sorted out using FACSAria and used for the experiments described below.
(§2) The above-prepared cells were plated on a 48-well plate coated with a recombinant polydom protein or fibronectin. The same type of plate without coating was used as a control. The medium used was RPMI containing 10% fetal calf serum, thrombopoietin (30 ng/ml) and flt3 ligand (100 ng/ml). For the examination of cell proliferation, the cells were plated in duplicate wells for each coating at 1000 cells/well and started to be cultured, and the cell number was counted at the start of culture, and on day 2 and day 3. The remaining cells were divided into three aliquots, plated in wells for each coating, and subjected to FACS analysis on day 3 after the start of culture. For the FACS analysis, staining with an antibody cocktail containing PE-CD3, PE-Mac1, PE-Gr1, PE-Ter119, PE-B220, FITC-Sca1 and APC-c-Kit was performed and FACSCont was used.
The above-prepared cells were divided into three groups and plated on 48-well plates at 5000 cells/well. The medium used was RPMI containing 10% fetal calf serum, thrombopoietin (30 ng/ml) and flt3 ligand (100 ng/ml). For an EDDMMEVPY peptide treatment group, 2 μl of the peptide was added to each well at the final concentration of 50 μM, and for the other two groups, 2 μl of PBS was added to each well. Then, the culture was performed at […] for 2 hours. Subsequently, the cells were transferred to 48-well plates coated with a recombinant polydom protein or fibronectin. The cells cultured in the presence of the peptide were transferred to the recombinant polydom protein-coated plate, and the cells in one of the other two groups were transferred to the recombinant polydom protein-coated plate, and the cells in the remaining group were transferred to the fibronectin-coated plate. The culture was continued for 3 days and the cell numbers were counted on day 2, day 3 and […].

hematopoietic stem cells [2] = assay: FACS analysis of differentiation of hematopoietic stem cells on coated wells; format: cell-based, mouse; settings: day 3 of culture on coated well, FIG. 19
Method: as §1, §2

cardiac stem cells [3] = assay: Cell adhesion assay using GFP label-retaining cells (cardiac stem cells); format: cell-based, mouse; settings: 100 nM coating, 12 hours, serum-free IMDM, FIG. 25
Text: (§3) Tissue stem cells are known to generally have a very prolonged, cell cycle and thus allow labeling compounds incorporated into DNA and the cell interior to remain stable for a long period of time without decay along with cell division, This nature can be advantageously used to identify and separate tissue stem cells by short-term labeling or cells with a nucleotide analog such as bromodeoxyuridine (BrdU) or a fusion protein of green fluorescent protein (hereinafter referred to as “GFP”) and a nucleoprotein, histone, followed by selection of cells retaining the label for a long period of time (label-retaining cells). In this experiment, with the use of a tetracycline-inducible expression system in combination with the ROSA26 promoter, a fusion protein of GFP and histone H2B (H2B-GFP) was expressed in the heart of a mouse for 2 weeks starting 1 week before birth, and 6 weeks later, cardiac stem cells were separated as GFP label-retaining cells from the heart.
To explore whether polydom serves as a scaffold for integrin α9β1-expressing cardiac stem cells, cardiac stem cells were separated as GFP label-retaining cells and subjected to a cell adhesion assay. A 96-well immuno plate (Nunc Maxisorp) was coated with 50 μl/well of 100 nM polydom or fibronectin at 4° C. overnight, GFP label-retaining cells were collected by FACSAria and suspended at 1×10^6 cells/ml in serum-free Iscove's Modified Dulbecco Medium (hereinafter referred to as “IMDM”). The cell suspension was plated at 100 μl/well and cultured in a 5% CO2 incubator at 37° C. for 12 hours. After three washes with PBS, the cells were fixed with 100 μl/well of 3.7% formalin for 15 minutes. Then, the cells were incubated with 0.5% toluidine blue (150 μl/well) for 10 minutes and washed with MilliQ water. After drying, the number of attached cells was counted under a microscope.

cardiac stem cells [4] = assay: Colony forming ability of GFP label-retaining cells (cardiac stem cells); format: cell-based, mouse; settings: 100 nM coating, 1×10^4 cells/well, 2 weeks, FIG. 26
Text: as §3
To explore whether cardiac stem cells proliferate on a polydom-coated plate, colony formation was measured, as an indicator of proliferation. A Falcon 6-well plate was coated with 800 μl/well of 100 nM polydom or fibronectin at 4° C. overnight. GFP label-retaining cells were collected by FACSAria and suspended in IMDM containing 10% fetal calf serum. […] After drying, the number of colonies was counted under a microscope.

integrin α9β1 = biological target: T1, integrin α9β1 (Homo sapiens, UniProt P05556+Q13797); assay: Integrin α9β1-pol-C binding inhibition assay with synthetic peptides; settings: integrin α9β1 10 nM, pol-C 10 nM, 1 mM MnCl2, 10% DMSO, FIG. 15
T1 construct: A cDNA encoding the extracellular region of human integrin α9; An expression vector for the extracellular region of integrin β1; ACID coiled-coil (Velcro) peptide; FLAG; BASE coiled-coil (Velcro) peptide; made in house; host or cells: FreeStyle 293 Expression System (293-F cells)
T1 sequence (Q13797 30-981 limits assumed): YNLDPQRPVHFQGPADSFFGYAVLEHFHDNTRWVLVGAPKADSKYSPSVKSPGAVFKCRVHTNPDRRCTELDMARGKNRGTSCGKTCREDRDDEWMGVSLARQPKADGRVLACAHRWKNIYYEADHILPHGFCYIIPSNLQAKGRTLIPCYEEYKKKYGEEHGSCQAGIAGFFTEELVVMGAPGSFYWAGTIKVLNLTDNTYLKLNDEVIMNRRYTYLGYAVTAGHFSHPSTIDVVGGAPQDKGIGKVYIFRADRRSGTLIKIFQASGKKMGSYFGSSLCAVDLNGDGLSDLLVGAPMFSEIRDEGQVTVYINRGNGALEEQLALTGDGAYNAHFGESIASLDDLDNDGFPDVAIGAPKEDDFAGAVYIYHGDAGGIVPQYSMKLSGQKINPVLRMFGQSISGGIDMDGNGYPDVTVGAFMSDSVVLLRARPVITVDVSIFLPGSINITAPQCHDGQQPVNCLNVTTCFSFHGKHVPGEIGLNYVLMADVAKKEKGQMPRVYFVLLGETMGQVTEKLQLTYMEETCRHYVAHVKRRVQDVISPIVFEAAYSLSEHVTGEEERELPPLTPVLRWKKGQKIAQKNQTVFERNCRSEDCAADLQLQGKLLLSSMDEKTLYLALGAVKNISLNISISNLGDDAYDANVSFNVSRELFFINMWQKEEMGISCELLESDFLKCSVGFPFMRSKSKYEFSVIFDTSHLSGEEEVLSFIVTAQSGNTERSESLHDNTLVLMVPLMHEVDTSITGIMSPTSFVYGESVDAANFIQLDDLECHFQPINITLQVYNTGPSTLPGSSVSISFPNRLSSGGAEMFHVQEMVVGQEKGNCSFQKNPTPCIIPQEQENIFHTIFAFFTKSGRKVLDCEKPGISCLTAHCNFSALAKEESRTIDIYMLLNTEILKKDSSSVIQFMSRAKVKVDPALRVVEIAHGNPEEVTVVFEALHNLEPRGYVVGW
T1 sequence (P05556 21-728 limits assumed): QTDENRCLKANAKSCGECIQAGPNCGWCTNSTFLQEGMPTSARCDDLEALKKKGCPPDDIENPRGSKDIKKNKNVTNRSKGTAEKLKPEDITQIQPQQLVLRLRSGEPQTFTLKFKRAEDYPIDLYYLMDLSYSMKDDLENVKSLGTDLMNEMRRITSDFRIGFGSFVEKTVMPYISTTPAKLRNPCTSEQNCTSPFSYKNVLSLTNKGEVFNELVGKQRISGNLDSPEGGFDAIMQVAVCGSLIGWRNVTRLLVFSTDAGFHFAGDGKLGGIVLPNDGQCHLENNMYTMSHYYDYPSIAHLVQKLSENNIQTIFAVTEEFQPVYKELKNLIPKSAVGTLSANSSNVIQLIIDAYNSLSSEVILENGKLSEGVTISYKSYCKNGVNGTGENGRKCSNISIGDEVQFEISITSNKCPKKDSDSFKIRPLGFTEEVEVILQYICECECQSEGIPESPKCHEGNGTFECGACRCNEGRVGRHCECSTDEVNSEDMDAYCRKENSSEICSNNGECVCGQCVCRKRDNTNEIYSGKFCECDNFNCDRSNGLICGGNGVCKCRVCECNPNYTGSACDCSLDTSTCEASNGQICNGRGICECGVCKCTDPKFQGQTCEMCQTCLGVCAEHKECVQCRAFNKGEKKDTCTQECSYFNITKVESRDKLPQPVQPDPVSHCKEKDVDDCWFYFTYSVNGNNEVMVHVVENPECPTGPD
Method: An integrin binding assay was performed as described in the above-mentioned publication Matrix Biol. 25, […], (2006). In some experiments, integrins were preincubated with synthetic peptides at various concentrations to evaluate the inhibitory activities of the synthetic peptides. The apparent dissociation constants were determined as described in Nishiuchi, R., Murayama, O., Fujiwara, H., Gu, J., Kawakami. T., Aimoto, S., Wada, Y., and Sekiguchi, K. (2003) J. Biochem, 134, 497-504.
To further corroborate the role of EDDMMEVPY as the integrin α9β1 recognition sequence, an integrin α9β1-pol-C binding inhibition assay was performed using synthetic peptides consisting of the EDDMMEVPY sequence or a part of the sequence, Integrin α9β1 (10 nM) was incubated on microtiter plates coated with pol-C (10 nM) in the presence of 1 mM MnCl2 and various concentrations of the synthetic peptides. To prevent precipitation of the peptides, the assay was performed in the presence of 10% DMSO. Based on the amount of integrin α9β1 bound to pol-C set as 100%, the relative binding amount was calculated.

[5] = biological target: integrin α9β1 on RD cells (human rhabdomyosarcoma cells) (human) (UniProt Q13797); assay: cell-based or functional assay
Sequence of integrin α9β1 on RD cells (human rhabdomyosarcoma cells) (human) (Q13797 30-1035, chain 1 of 2): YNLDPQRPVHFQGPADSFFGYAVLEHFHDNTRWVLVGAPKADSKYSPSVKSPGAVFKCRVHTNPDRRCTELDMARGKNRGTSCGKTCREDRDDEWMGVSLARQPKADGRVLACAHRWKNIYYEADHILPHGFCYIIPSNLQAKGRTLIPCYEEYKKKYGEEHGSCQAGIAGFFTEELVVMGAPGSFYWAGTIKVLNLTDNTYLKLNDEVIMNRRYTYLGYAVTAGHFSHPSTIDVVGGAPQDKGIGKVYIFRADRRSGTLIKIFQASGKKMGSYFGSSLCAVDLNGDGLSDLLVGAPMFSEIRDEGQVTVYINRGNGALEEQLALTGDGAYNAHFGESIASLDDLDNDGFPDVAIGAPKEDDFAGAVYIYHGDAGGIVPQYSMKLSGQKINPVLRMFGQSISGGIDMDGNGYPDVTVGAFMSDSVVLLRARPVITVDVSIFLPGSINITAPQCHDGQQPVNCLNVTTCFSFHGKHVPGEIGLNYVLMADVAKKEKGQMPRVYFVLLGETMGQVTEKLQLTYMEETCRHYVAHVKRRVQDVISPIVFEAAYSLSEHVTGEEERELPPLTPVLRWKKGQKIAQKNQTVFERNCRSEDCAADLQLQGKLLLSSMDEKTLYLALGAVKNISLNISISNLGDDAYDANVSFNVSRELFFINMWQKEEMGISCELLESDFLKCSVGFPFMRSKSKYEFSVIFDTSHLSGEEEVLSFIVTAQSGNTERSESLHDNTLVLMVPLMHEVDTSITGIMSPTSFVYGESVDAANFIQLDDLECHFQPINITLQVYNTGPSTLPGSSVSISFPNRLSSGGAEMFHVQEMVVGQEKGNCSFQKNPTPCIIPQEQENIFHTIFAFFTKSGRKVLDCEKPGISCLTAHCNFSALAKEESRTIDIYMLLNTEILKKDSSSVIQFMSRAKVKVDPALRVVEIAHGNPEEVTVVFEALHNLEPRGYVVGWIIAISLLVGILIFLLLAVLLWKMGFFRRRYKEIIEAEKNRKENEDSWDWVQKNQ
Sequence of integrin α9β1 on RD cells (human rhabdomyosarcoma cells) (human) (P05556 21-798, chain 2 of 2, further chain): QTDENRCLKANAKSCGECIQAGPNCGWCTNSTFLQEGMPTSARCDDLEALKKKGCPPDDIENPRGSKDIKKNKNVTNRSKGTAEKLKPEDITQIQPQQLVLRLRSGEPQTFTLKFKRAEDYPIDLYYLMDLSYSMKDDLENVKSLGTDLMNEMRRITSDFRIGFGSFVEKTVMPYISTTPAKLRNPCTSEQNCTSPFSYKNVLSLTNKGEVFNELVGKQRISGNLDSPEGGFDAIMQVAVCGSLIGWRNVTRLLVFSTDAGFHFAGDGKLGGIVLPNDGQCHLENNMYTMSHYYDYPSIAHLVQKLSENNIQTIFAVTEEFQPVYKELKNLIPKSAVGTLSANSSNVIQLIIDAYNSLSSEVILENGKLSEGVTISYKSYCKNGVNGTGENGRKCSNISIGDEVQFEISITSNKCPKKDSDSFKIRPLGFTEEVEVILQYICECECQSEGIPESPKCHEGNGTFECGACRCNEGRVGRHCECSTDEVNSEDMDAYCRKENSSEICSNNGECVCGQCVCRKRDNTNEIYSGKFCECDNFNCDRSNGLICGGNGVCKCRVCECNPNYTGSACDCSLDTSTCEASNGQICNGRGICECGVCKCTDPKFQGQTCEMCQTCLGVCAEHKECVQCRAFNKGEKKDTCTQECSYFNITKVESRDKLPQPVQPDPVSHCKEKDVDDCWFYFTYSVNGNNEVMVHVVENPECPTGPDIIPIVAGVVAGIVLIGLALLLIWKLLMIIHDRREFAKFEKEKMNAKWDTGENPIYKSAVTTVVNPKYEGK

Which “proliferation of hematopoietic stem cells on coated wells” value (hematopoietic stem cells [1]; 1000 cells/well, counted to day 3, versus uncoated control, FIG. 18) does the source give for fibronectin [reference compound] here?
The value was “proliferated as with the control”.

And the “proliferation of hematopoietic stem cells on coated plate after PBS pretreatment” value (hematopoietic stem cells [1]; 5000 cells/well, counted day 2 to day 4, FIG. 20)?
Its value is “proliferated”.

What about the “expression of c-Kit on hematopoietic stem cells” value (hematopoietic stem cells [2]) of the same substance?
Its value is “increased expression of c-Kit”.

What about the “adhesion of cardiac stem cells to coated plate” value (cardiac stem cells [3]) of the same substance?
Its value is “a large number of the cells adhered”.

And the “colony forming activity (colony count relative to the number of cells plated)” value (cardiac stem cells [4])?
The value was “about 0.4%”.

TYSSPEDGIHE [reference compound] was tested. Which “inhibitory potency toward binding of integrin α9β1 to pol-C” value (integrin α9β1) did it give?
Its value is “barely inhibitory”.

How did the adhesion of RD cells to coated full-length polydom [5] turn out when “full-length polydom (recombinant mouse SVEP1) (from UniProt A2AVA0 18-3567) (ligand)” was run?
Its adhesion of RD cells to coated full-length polydom is 3 µg/mL.

With DMMEVPY as the substance, how does the “inhibitory potency toward binding of integrin α9β1 to pol-C” value (integrin α9β1) read?
The value was “nearly as potent as EDDMMEVPY”.
